Test results from paper PMC9685055, “Biological activity of new bioactive steroids deriving from biotransformation of cortisone” (Microbial Cell Factories, 2022).
Blank lines part the entries; values can stand above or below the compound they belong to.

Key:
[1] = test system: p65 NF-κB nuclear translocation in HaCaT cells; experiment: TNFα-induced p65 NF-κB nuclear translocation, immunofluorescence; assay type: cell-based; details: positive control (betamethasone-17-valerate 10 µg/mL), then 10 ng/mL TNFα 1 h
Procedure: HaCaT cells were cultured with Dulbecco’s modified Eagle’s medium High Glucose (Lonza, Milan, Italy) supplemented with 10% FBS, 100 U/mL penicillin, 100 μg/mL streptomycin and 2 mM L-glutamine as previously described. Cells were maintained in a humidified incubator at 37 °C with 5% CO2 and incubated until the monolayer was 80% confluent. Medium was changed every 2 days.
HaCaT cells were pretreated with or without 10 μM of both SCA and SCB for 24 h. Stock solutions of the two compounds were prepared in DMSO immediately before use and diluted to the final concentration in the culture medium. In some sets of experiments, betamethasone-17-valerate (10 µg/mL) served as a positive control; dimethyl sulfoxide (DMSO) served as a solvent control. After the pretreatments, cells were stimulated with 10 ng/mL TNFα for 1 h to induce the NFκB signaling pathway. Then, media were replaced with fresh culture medium. Cells and supernatants were collected at different time points for each set of experiments as described below.
Briefly, HaCaT cells were seeded on coverslips at a density of 1 × 10^5 cell/mL and incubated with DMEM high glucose supplemented with FBS 10%. Then, HaCaT cells were treated as indicated above. At the end of the proinflammatory stimulus with TNFα, cells were fixed in 4% paraformaldehyde in PBS for 30 min at 4 °C as previously described. HaCaT cells were permeabilized for 5 min at RT with PBS containing 0.2% Triton X-100. After the blocking with 1% BSA in PBS at RT for 1 h, HaCaT cells were incubated with p65 NF-κB primary antibody (1:100, sc-372; Santa Cruz Biotechnology, Inc., Dallas, Texas, USA) in PBS containing 0.5% BSA at 4 °C overnight. After washing, coverslips were incubated with appropriate secondary antibody for 1 h at RT. Nuclei were stained with 1 μg/mL DAPI (Sigma- Aldrich, Italy) for 1 min. […] Fluorescence was examined using an Epifluorescence microscope (Nikon Eclipse E800; Nikon Corporation, Surrey, UK) equipped with a plan apochromat 100 × 0.5 − 1.3 oil immersion objective and a mercury lamp source.

cyclooxygenase (COX) = molecular target: T1, cyclooxygenase (COX) (Ovis aries, UniProt P05979); experiment: Cyclooxygenase inhibitory assay (fluorescence COX activity kit); assay type: biochemical; details: purified COX preparation, 50 µM, positive control
T1 construct: purchased Cayman 700200
T1 sequence (P05979 25-600): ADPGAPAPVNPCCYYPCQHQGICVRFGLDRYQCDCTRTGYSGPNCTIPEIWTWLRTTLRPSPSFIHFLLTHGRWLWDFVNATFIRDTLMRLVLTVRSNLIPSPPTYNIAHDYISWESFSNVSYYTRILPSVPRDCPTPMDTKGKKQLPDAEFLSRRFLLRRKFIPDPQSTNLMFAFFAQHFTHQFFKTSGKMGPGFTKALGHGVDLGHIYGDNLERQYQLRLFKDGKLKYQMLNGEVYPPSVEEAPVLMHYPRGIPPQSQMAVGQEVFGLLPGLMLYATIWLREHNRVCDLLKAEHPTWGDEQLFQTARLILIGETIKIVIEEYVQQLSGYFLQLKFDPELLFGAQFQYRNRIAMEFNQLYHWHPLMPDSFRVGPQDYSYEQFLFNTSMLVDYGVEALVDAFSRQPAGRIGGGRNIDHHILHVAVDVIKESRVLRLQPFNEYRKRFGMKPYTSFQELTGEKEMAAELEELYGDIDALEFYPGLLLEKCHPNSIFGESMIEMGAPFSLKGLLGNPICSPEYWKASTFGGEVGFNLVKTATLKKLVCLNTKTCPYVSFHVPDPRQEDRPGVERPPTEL
Procedure: Cyclooxygenase (COX) activity assay was determined by using a fluorescence COX activity assay kit (Cayman, No. 700200) for detecting COX-1 and COX-2 activity in purified enzyme and tissue homogenate preparations. The assay was conducted by monitoring the appearance of fluorescent compound resofurin in accordance to the supplier recommendation. Aspirin (acetylsalicylic acid; 50 µM) served as positive control. The test compounds were dissolved in 1–2% DMSO (v/v) at 4 different concentrations (0.1, 1, 10 and 100 µM) and added to a purified COX preparation. A 1–2% DMSO solution was added to control plates. The plates were shaken for a few seconds and incubated for 5 min at 25 °C. The fluorescence was measured by using an excitation wavelength of 540 nm and an emission wavelength of 590 nm. Average fluorescent values were calculated for all the samples (n = 3/group) in order to determine the percentage of inhibition in respect to control (i.e. untreated) plates.

[2] = Photochemiluminescence (PCL-ACL) antioxidant assay; details: 0.1 mg/mL; Trolox equivalents per g of sample
Procedure: Photochemiluminescence assay, based on the methodology of Popov and Lewin [35], was performed to measure the antioxidant activity of cortisone, SCA and SCB compounds against superoxide anion radicals generated from luminol, a photosensitizer, when exposed to UV light at λmax = 351 nm. The antioxidant activity of compounds was measured using ACL kits (Analytic Jena, Jena, Germany) with a Photochem apparatus (Analytic Jena, Jena, Germany). In the PCL-ACL assay, the photochemical generation of free radicals is combined with the sensitive detection using chemiluminescence. In ACL studies, the kinetic light emission curve was monitored for 3 min and expressed as mM Trolox equivalents. The areas under the curves were calculated using the PCL soft control and analysis software. […] The observed inhibition of the signal was plotted against the concentration of Trolox added to the assay medium. The concentration of the added sample was such that the generated luminescence during the 3 min sampling interval fell within the limits of the standard curve. For ACL assay, 2.3 mL of reagent 1 (solvent and dilution reagent, methanol), 0.2 mL of reagent 2 (buffer solution), 25 μL of reagent 3 (photosensitizer: luminol 1 mmol L^−1), and 10 μL of standard or sample solution were mixed and measured. Luminol is used as a photosensitizer and as a detecting substance for free radicals. Trolox were used for the standard calibration curve from […].

Structure (SMILES): C[C@H]1C[C@H]2[C@@H]3CCC4=CC(=O)C=C[C@]4(C)[C@@]3(F)[C@@H](O)C[C@]2(C)[C@@]1(O)C(=O)CO [betamethasone, reference compound]
effect on TNFα-mediated p65 activation [1]: only partly prevented

effect on COX activity (cyclooxygenase (COX)): strongly inhibited
Structure (SMILES): CC(=O)Oc1ccccc1C(=O)O [aspirin, acetylsalicylic acid, reference compound]

Structure (SMILES): C[C@]12CCC(=O)C=C1CC[C@@H]1[C@@H]2C(=O)C[C@@]2(C)[C@H]1CC[C@]2(O)C(=O)CO [cortisone]
antioxidant capacity, PCL-ACL assay [2]: 0.13 µmol/g
